Reference: patent US20260124184A1, “ONCE DAILY ALDOSTERONE SYNTHASE INHIBITOR (R)-(+)-5-(P-CYANOPHENYL)-5,6,7,8-TETRAHYDROIMIDAZO[L,5-A]PYRIDINE” (priority 2022, published 2026)
Entries after “also recorded” stand apart in the source; their conditions may differ. Like-named read-outs stand apart in the source and are kept apart here.

Test system: patients with primary aldosteronism
Procedure: A double-blind, randomized, Phase 2 trial was conducted between November 2019 and June 2022 at 11 centres in Italy, Switzerland and the Netherlands (NCT04007406). […] Patients requiring fixed-dose antihypertensive therapy continued treatment throughout the study; steroid therapies, β-adrenergic and renin-angiotensin-aldosterone system blockers were not permitted. At 14-day intervals, office blood pressures were recorded and blood samples were taken for measurement of steroid and peptide hormones and electrolytes at a central laboratory.
Plasma aldosterone and plasma renin concentration were measured centrally under GCP regulations using the Liaison® chemiluminescent immunoassay kit supplied by DiaSorin S.p.A. Italy. The system used specific monoclonal antibodies to prevent cross reactions with other major potential reactants in the serum samples. The monoclonal antibodies directed against specific epitopes of the renin molecule allowed accurate and sensitive quantification. The assays were performed according to the instructions provided by the manufacturer. […] The analytical sensitivity was <0.97 ng/ml. […] The analytical sensitivity was <0.53 IU/mL.
For all efficacy endpoints, changes from baseline were calculated from linear models and accompanied by 95% confidence intervals and p values. Log-transformed values were used for changes in ARR. The full analysis set (FAS) and safety set were defined as all randomized patients who received at least one dose of study drug.

[1] = 4 mg once daily, n=10, Day 1 (baseline)
[2] = 4 mg once daily, n=10, Day 70 (after placebo withdrawal)
[3] = 8 mg once daily, n=12, Day 1 (baseline)
[4] = 8 mg once daily, n=12, Day 70 (after placebo withdrawal)
[5] = 12 mg once daily, n=13, Day 1 (baseline)
[6] = 12 mg once daily, n=13, Day 70 (so in the source)

(R)-(+)-5-(p-cyanophenyl)-5,6,7,8-tetrahydroimidazolium[1,5-a]pyridine dihydrogen phosphate [dexfadrostat phosphate]
change in ARR from baseline to Day 56, mean (4 mg once daily, n=10): −20.87 (ng/dL)/(mU/L)
change in ARR from baseline to Day 56, median (4 mg once daily, n=10): −14.98 (ng/dL)/(mU/L)
ARR, mean [1]: 24.56 (ng/dL)/(mU/L)
ARR, median [1]: 21.37 (ng/dL)/(mU/L)
ARR, mean (4 mg once daily, n=10, Day 14): 4.57 (ng/dL)/(mU/L)
ARR, median (4 mg once daily, n=10, Day 14): 3.76 (ng/dL)/(mU/L)
ARR, mean (4 mg once daily, n=10, Day 28): 2.57 (ng/dL)/(mU/L)
ARR, median (4 mg once daily, n=10, Day 28): 1.76 (ng/dL)/(mU/L)
ARR, mean (4 mg once daily, n=10, Day 42): 2.87 (ng/dL)/(mU/L)
ARR, median (4 mg once daily, n=10, Day 42): 2.07 (ng/dL)/(mU/L)
ARR, mean (4 mg once daily, n=10, Day 56): 3.70 (ng/dL)/(mU/L)
ARR, median (4 mg once daily, n=10, Day 56): 2.52 (ng/dL)/(mU/L)
ARR, mean [2]: 12.34 (ng/dL)/(mU/L)
ARR, median [2]: 11.47 (ng/dL)/(mU/L)
change in ARR from baseline to Day 56, mean (8 mg once daily, n=12): −10.61 (ng/dL)/(mU/L)
change in ARR from baseline to Day 56, median (8 mg once daily, n=12): −6.99 (ng/dL)/(mU/L)
ARR, mean [3]: 11.58 (ng/dL)/(mU/L)
ARR, median [3]: 7.18 (ng/dL)/(mU/L)
ARR, mean (8 mg once daily, n=12, Day 14): 0.8 (ng/dL)/(mU/L)
ARR, median (8 mg once daily, n=12, Day 14): 0.31 (ng/dL)/(mU/L)
ARR, mean (8 mg once daily, n=12, Day 28): 1.26 (ng/dL)/(mU/L)
ARR, median (8 mg once daily, n=12, Day 28): 0.4 (ng/dL)/(mU/L)
ARR, mean (8 mg once daily, n=12, Day 42): 0.74 (ng/dL)/(mU/L)
ARR, median (8 mg once daily, n=12, Day 42): 0.29 (ng/dL)/(mU/L)
ARR, mean (8 mg once daily, n=12, Day 56): 0.96 (ng/dL)/(mU/L)
ARR, median (8 mg once daily, n=12, Day 56): 0.27 (ng/dL)/(mU/L)
ARR, mean [4]: 4.19 (ng/dL)/(mU/L)
ARR, median [4]: 2.46 (ng/dL)/(mU/L)
change in ARR from baseline to Day 56, mean (12 mg once daily, n=13): −15.61 (ng/dL)/(mU/L)
change in ARR from baseline to Day 56, median (12 mg once daily, n=13): −13.97 (ng/dL)/(mU/L)
ARR, mean [5]: 17.75 (ng/dL)/(mU/L)
ARR, median [5]: 17.8 (ng/dL)/(mU/L)
ARR, mean [6]: 9.3 (ng/dL)/(mU/L)
ARR, median [6]: 13.72 (ng/dL)/(mU/L)
ARR upon drug withdrawal (Day 70, after 14-day placebo withdrawal): ARR values returned towards baseline values
change in ARR from baseline to Day 56, mean (all doses combined, n=35): −15.40 (ng/dL)/(mU/L)
change in ARR from baseline to Day 56, median (all doses combined, n=35): −11.76 (ng/dL)/(mU/L)
LSM change in lognormal values of ARR from baseline (all patients, Day 1 to Day 56, FIG. 2A, p<0.0001): −2.54 (95% CI −2.9 to −2.2)
effect on ARR from baseline to day 56 (all three doses (4 mg, 8 mg, 12 mg)): significant reductions (p<0.0001) in ARR from baseline to day 56
effect on ARR over time (all three doses, baseline to day 14, 28, 42 and 56): rapid and significant (p<0.0001) reductions in ARR; also recorded: rapid and significant reductions (p<0.0001) in ARR
